In patent US20070010446A1, “METHODS FOR TREATING INFLAMMATION USING THYROID STIMULATING HORMONE” (ZymoGenetics, Inc., priority 2003, published 2007):

How the values were obtained:
C57BL/6 mice [1] = experiment: LPS-induced mild endotoxemia mouse model, serum cytokines by ELISA; assay type: in vivo; conditions: treatment i.p. 1 hour prior, Dex […], TSH 2.0 mg/kg, Thyroxine 0.05 mg/kg; for TNFα (1 hr) +/− S.E.: serum 1 hour after 25 ug LPS i.p., PBS group 6990.8; for IL-6 (4 hr) +/− S.E.: serum 4 hours after 25 ug LPS i.p., PBS group 45.6
Protocol: The LPS-induced mild endotoxemia model is an in vivo model designed to mimic acute endotoxemia/sepsis by challenging mice with a low, non-lethal dose of bacterial endotoxin (lipopolysaccharide, LPS). Serum is collected at various timepoints (1-72 hours) after intraperitoneal LPS injection and analyzed for altered expression of a wide variety of pro- and anti-inflammatory cytokines and acute phase proteins that mediate the inflammatory response. The model provides a means to assess the potential anti-inflammatory effects of therapeutic candidates during a robust inflammatory response.
In this model, an initial experiment is run to determine the production of proinflammatory cytokines in response to an injection of LPS. For example, six-month old Balb/c (Charles River Laboratories, Wilmington, Mass.) female mice are injected with 25 μg LPS (Sigma) in sterile PBS intraperitoneally (i.p.). Serum samples are collected at 0, 1, 4, 8, 16, 24, 48 and 72 hours later, and are assayed for serum levels of inflammatory mediators, such as IL-1β, IL-6, TNFα, and IL-10. Commercially available ELISA kits (Biosource International, Camarillo, Calif.) can be used to deterime the serum levels. In this assay TNFα levels and IL-1β levels can be measured at 1 hour post-LPS injection, and IL-6, IL-10 and IL-10 can be measured at 4 hours post injection. From these inflammatory mediators, one or more is chosen as a representative biological marker(s) for the LPS model of mild endotoxemia.
Next, C57BL/6 mice (Charles River Laboratories; 5 mice/group) are treated i.p. with PBS, or the test compound in PBS 1 hour prior to LPS challenge. The mice are then challenged with 25 ug of LPS i.p. and are bled at 1 hour and 4 hours after LPS injection. The level of the representative biological marker(s) is analyzed by ELISA.
Thyroxine (0.05 mg/kg) and Dexamethasone (0.015 mg/kg) were run as negative and positive controls, respectively. […] This model can be optimized for dosage and choice of biological markers.

thymus = conditions: mouse, in vivo
C57BL/6 mice [2] = experiment: Delayed Type Hypersensitivity (DTH), OVA ear challenge; assay type: in vivo; conditions: Expt 3 (n = 7), adrenalectomized (ADX) mice; treatment i.p. at challenge (d 7); Dex […], TSH 2.0 mg/kg

Q: For `C[C@@H]1C[C@H]2[C@@H]3CCC4=CC(=O)C=C[C@]4(C)[C@@]3(F)[C@@H](O)C[C@]2(C)[C@@]1(O)C(=O)CO` [Dex, Dexamethasone], which “TNFα (1 hr) +/− S.E.” value (C57BL/6 mice [1]) is on record?
A: Its value is 3798.4 ± 415.7 pg/mL.

Q: What about the “IL-6 (4 hr) +/− S.E.” value (C57BL/6 mice [1]) of the same compound?
A: Its value is 35.2 ± 2.8 ng/mL.

Q: And the “thymic atrophy (in words)” value (thymus)?
A: Its value is “obvious thymic atrophy”.

Q: And the “CHANGE IN EAR THICKNESS, LEFT EAR (PBS)” value (C57BL/6 mice [2])?
A: Its value is 0.07 +/− 0.61 ×10^−3 inch.

Q: What about the “CHANGE IN EAR THICKNESS, RIGHT EAR (OVA)” value (C57BL/6 mice [2]) of the same compound?
A: Its value is 3.71 +/− 0.64 ×10^−3 inch.

Q: With `N[C@@H](Cc1cc(I)c(Oc2cc(I)c(O)c(I)c2)c(I)c1)C(=O)O` [Thyroxine] as the compound, how does the “TNFα (1 hr) +/− S.E.” value (C57BL/6 mice [1]) read?
A: Its value is 4289.5 ± 642.3 pg/mL.

Q: And the “IL-6 (4 hr) +/− S.E.” value (C57BL/6 mice [1])?
A: Its value is 37.1 ± 0.9 ng/mL.
